A short description of experiment [1]: HEK-293T cell viability reduction – luminescence, B-cell screen hits, cytotoxicity control for BCR NF-kB inhibitor project, dose response (AID 489021).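 Further: HEK-293T cells carrying an NF-kB luciferase reporter; cells exposed to compound for about 14 hours before viability readout.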 Format: functional, cell-based.
For experiment [2], the target named is Glyceraldehyde-3-phosphate dehydrogenase (Homo sapiens, UniProt P04406).
Experiment [3] addresses T1, Alkaline phosphatase, tissue-nonspecific isozyme (Homo sapiens, UniProt P05186).
T1 sequence (P05186 whole entry): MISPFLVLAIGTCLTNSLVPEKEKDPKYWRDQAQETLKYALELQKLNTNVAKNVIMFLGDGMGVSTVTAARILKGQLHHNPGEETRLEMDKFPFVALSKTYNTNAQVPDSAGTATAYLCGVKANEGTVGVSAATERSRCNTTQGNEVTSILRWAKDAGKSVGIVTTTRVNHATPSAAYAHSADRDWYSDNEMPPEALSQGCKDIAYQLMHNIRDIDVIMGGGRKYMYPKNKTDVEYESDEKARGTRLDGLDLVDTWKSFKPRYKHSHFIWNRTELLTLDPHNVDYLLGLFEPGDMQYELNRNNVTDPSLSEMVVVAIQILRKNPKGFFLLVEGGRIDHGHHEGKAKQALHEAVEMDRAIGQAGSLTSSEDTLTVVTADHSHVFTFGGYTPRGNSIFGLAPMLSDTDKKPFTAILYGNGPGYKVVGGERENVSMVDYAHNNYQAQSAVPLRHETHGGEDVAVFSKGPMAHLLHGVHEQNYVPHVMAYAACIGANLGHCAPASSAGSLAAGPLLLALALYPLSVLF
As to the kind of experiment: potency against alkaline phosphatase TNAP – biochemical, luminescent, dose response, SAR follow-up (AID 1056).

The target of a further experiment is T2, CAAX prenyl protease 2 (Saccharomyces cerevisiae S288c, UniProt Q03530).
T2 sequence (Q03530 whole entry): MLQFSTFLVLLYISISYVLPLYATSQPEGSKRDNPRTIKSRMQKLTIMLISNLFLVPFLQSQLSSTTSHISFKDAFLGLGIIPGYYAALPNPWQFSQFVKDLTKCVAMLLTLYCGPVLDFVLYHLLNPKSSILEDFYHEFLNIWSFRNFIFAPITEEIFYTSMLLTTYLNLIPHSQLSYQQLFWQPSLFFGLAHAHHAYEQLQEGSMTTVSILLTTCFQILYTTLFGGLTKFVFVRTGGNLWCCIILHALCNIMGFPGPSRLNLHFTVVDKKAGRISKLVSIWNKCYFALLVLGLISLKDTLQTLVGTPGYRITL
Format: biochemical.

Experiment [4] is described as follows: alpha-synuclein stem-loop luciferase translation blockers – H4 neuroglioma cells, luminescence, confirmation (AID 1988). Format: functional, cell-based.
For experiment [5], the target named is T3, RNA-binding protein pos-1 (Caenorhabditis elegans, UniProt G5EF15).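 Further: purified POS-1 fused to maltose binding protein made in E. coli; potency of compounds blocking POS-1 binding to fluorescent RNA.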
T3 sequence (G5EF15 whole entry): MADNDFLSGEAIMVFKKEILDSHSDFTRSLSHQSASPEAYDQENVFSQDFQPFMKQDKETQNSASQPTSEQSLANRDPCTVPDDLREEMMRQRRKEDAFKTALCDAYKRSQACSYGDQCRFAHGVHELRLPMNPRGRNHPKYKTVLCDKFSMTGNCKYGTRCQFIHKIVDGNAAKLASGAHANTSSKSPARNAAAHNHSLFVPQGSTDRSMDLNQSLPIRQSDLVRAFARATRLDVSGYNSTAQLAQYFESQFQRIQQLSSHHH
In words: disruptors of C. elegans POS-1 RNA interaction – biochemical, fluorescence polarization, dose response (AID 1964). (In fluorescence polarisation assays a small probe gives low polarisation when free and higher when bound to something large.)

A short description of experiment [6]: Luminescence Cell-Based Dose Response HTS to Identify Inhibitors of 5'UTR Stem-Loop Driven Prion Protein mRNA Translation in H4 Neuroglioblastoma Cells. [Related pubchem assays: 1827 (Project Summary), 1813 (Primary HTS)]. The format is functional.
Experiment [7] can be described thus: luciferase reporter signal suppression in cells – H4 neuroglioma cells, luminescence, dose response (AID 1990). Format: functional, cell-based.
Experiment [8] deals with T4, Zinc finger protein mex-5 (Caenorhabditis elegans, UniProt Q9XUB2).
T4 sequence (Q9XUB2 whole entry): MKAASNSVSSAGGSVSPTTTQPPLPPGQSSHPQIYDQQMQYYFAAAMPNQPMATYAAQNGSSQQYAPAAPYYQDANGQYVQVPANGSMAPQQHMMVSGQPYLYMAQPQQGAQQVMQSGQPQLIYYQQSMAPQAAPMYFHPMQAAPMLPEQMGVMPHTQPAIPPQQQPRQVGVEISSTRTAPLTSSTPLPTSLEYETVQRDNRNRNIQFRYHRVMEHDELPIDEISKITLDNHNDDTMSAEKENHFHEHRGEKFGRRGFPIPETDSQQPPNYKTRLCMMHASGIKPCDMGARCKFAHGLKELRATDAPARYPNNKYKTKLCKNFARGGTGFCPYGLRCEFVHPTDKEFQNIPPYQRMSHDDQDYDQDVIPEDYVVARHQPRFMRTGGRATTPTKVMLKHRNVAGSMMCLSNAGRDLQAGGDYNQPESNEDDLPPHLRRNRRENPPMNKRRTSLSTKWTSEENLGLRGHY
As to the kind of experiment: potency of MEX-5 RNA-binding blockers – biochemical, C. elegans, fluorescence polarization, dose response (AID 1960).

Experiment [9] deals with T5, Insulin-degrading enzyme (Homo sapiens, UniProt P14735).
T5 sequence (P14735 whole entry): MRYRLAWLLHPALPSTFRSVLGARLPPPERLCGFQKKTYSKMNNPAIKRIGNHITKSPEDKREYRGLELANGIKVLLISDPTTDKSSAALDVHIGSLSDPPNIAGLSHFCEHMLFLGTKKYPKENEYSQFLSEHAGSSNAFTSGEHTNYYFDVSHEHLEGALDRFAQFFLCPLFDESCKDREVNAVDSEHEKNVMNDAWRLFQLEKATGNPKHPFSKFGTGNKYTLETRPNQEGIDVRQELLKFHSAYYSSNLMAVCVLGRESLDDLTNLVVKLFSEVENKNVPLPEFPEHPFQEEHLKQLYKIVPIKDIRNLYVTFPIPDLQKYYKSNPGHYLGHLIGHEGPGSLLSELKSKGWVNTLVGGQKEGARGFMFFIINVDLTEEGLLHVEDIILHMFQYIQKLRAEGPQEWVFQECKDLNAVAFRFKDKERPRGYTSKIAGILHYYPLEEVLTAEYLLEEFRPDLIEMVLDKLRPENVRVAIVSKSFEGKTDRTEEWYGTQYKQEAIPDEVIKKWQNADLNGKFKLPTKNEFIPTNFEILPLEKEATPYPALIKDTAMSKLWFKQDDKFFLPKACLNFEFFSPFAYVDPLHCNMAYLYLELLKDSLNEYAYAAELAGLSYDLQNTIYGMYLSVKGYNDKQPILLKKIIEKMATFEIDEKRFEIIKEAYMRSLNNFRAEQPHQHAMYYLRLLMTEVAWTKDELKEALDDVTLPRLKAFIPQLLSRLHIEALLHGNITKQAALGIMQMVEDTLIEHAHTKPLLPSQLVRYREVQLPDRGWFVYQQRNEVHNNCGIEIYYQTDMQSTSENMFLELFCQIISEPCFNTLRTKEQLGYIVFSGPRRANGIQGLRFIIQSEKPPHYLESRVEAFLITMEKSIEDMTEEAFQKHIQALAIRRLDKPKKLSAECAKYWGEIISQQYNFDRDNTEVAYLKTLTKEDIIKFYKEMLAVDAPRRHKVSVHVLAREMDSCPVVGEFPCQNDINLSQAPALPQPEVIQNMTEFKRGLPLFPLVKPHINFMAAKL
In words: cellular IDE activation of Abeta substrate cleavage – fluorescence polarization, HEK cells, dose response (AID 588439). Format: functional, cell-based.

A further experiment has as its target T6, ORF 73 (Human herpesvirus 8, UniProt O40947).
T6 sequence (O40947 whole entry): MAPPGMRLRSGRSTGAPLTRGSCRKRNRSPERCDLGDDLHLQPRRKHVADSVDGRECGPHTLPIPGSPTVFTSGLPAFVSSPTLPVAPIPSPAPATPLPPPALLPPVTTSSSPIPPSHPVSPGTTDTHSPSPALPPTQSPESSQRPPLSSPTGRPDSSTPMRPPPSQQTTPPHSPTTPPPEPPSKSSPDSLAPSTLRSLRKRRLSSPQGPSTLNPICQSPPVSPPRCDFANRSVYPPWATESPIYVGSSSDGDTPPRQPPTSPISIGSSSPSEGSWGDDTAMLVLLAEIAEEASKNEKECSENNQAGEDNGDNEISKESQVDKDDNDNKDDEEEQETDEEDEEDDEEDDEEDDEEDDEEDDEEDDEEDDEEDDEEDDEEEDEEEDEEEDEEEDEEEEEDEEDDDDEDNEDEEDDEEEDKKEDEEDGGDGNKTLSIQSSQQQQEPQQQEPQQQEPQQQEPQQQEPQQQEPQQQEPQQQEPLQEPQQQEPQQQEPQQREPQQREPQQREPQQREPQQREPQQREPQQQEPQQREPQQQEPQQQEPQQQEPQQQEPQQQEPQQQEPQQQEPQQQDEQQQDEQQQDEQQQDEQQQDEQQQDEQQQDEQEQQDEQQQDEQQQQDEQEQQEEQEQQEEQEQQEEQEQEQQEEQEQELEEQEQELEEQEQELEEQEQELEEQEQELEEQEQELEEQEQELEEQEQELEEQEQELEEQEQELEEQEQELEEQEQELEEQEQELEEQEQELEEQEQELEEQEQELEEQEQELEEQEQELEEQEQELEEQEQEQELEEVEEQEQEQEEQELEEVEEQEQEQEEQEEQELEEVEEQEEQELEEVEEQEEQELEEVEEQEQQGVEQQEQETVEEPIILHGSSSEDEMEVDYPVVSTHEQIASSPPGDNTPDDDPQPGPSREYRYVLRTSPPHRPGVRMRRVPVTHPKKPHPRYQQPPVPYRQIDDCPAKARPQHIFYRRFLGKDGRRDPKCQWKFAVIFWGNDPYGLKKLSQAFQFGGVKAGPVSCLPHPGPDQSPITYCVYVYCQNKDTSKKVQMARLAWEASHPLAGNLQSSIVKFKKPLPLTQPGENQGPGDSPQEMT
In words: KSHV LANA DNA-binding disruption – biochemical, fluorescence polarization, cherry-picked samples, dose response (AID 504725).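 Further: fluorescence polarization of a labeled DNA duplex reporting LANA DNA binding; potency is for inhibitors that block LANA binding to the DNA.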 On the set-up: species or system Human gammaherpesvirus 8.

For experiment [10], the system named is HEK293. As to the kind of experiment: membrane integrity loss in HEK cells – cell-based, fluorescence, cytotoxicity control for IDE activator project, dose response (AID 588440).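 Further: cytotoxicity by LDH release measuring loss of membrane integrity.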 Format: functional. The settings on record: Homo sapiens.
The target in experiment [11] is T7, Rac GTPase-activating protein 1 (Homo sapiens, UniProt Q9H0H5).
T7 sequence (Q9H0H5 whole entry): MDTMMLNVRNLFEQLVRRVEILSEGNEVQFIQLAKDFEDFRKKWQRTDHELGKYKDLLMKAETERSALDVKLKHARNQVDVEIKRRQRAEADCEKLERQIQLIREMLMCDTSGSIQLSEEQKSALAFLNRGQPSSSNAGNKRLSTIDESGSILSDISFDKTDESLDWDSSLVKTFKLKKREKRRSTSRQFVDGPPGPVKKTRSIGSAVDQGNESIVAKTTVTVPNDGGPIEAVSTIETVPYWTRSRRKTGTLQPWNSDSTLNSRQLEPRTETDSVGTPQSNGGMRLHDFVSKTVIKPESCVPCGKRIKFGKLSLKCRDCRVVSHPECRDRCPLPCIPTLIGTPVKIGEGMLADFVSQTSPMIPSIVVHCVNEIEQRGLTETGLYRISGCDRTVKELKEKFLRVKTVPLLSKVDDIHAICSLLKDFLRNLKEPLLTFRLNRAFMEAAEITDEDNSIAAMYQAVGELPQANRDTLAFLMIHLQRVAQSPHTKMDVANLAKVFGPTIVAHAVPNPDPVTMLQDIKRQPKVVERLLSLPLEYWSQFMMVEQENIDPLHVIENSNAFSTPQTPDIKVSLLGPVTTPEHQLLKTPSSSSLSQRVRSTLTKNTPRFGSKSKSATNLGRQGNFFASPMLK
In words: blockers of MgcRacGAP-driven Rac1 GTP hydrolysis – biochemical, ADP Hunter fluorescence, primary and confirmatory, confirmation (AID 624330). Format: functional.

Experiment [12] is described as follows: viability loss in HeLa cells – cytotoxicity control for MgcRacGAP inhibitor project, dose response (AID 624300). Format: functional.
For the next experiment, the system named is HeLa. In words: viability loss in HeLa cells – cell-based, 24 h, cherry-picked samples, cytotoxicity control, dose response (AID 504726).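 Further: potency for cytotoxicity as loss of luminescence signal.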 The settings on record: Homo sapiens. Format: functional.
Another experiment deals with Nonstructural protein 1 (Influenza A virus, UniProt Q194T2). The format is functional, Influenza A virus (A/California/07/2009(H1N1)).
Experiment [13] has as its target T5, Insulin-degrading enzyme. As to the kind of experiment: recombinant IDE activation, cell-free – biochemical, fluorescence polarization, counter-screen for IDE activator project, dose response (AID 588681).
For experiment [14], the system named is HEK293. In words: optical interference in Abeta FP readout, dose response, artefact control for IDE activator project, biochemical, fluorescence polarization (AID 588442). The format is functional, cell-based. The settings on record: Homo sapiens.

The source made the active and inactive calls. Some results are limits rather than exact numbers.

Chain of Glyceraldehyde-3-phosphate dehydrogenase (P04406 whole entry): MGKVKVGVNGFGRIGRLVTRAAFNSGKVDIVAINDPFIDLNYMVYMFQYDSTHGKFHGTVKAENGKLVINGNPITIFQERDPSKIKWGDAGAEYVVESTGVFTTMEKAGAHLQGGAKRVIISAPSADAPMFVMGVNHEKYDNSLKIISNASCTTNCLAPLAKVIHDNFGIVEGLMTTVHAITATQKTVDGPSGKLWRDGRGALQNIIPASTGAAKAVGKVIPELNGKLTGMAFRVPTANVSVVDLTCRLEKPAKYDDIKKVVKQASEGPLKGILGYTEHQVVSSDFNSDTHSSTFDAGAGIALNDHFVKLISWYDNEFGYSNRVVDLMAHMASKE
Chain of Nonstructural protein 1 (Q194T2 whole entry): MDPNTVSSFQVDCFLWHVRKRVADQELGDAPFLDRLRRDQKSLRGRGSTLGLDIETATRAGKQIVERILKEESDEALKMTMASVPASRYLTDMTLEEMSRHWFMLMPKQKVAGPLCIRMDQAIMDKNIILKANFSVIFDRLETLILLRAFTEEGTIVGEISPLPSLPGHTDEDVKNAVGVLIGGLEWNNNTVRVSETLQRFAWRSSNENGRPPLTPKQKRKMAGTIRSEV

Regarding `C=CCOc1ccc(NC(=O)C(=O)NCCCn2ccnc2)cc1`, the IC50 in [1] is > 80 µM (inactive).

For the compound `Cc1c(C(=O)O)nnn1-c1ccc(F)cc1`, the IC50 in [2] was > 100 µM (not active); in experiment [3], > 100 µM (inactive).

Consider `CCCn1c(O)c(N=NC(=O)CNC(=O)Cc2ccc(OC)cc2)c2ccccc21`, for which, at CAAX prenyl protease 2, the AC50 was > 100 µM (inactive).

Consider `COc1cccc(/C=C2\SC(=S)N(CCCC(=O)NC3=NCCS3)C2=O)c1`, for which the EC50 in experiment [4] was 13.2 µM (active); in experiment [5], > 300 µM (not active); in experiment [6], 14 µM (active); in experiment [7] it was 11.8 µM (active); in [8], > 300 µM (not active). Moreover, the IC50 in [1] was > 80 µM (inactive).

Consider `Nc1ccc2c3[nH]c4cc(N)ccc4cc-3nc2c1`, for which the EC50 on Insulin-degrading enzyme [9], on Insulin-degrading enzyme [13] and in the experiment with HEK293 [14] was > 54.7 µM (inactive) throughout. Moreover, the results for the AC50 at ORF 73 and in the experiment with HeLa were 0.758 µM (active) and 7.72 µM (active), respectively. In addition, the IC50 in the experiment with HEK293 [10] is > 89.2 µM (inactive); in experiment [11], 44.7 µM (active); on Nonstructural protein 1, 21.1 µM (active). Besides, the half-maximal cytotoxic concentration (CC50) in [12] was 8.81 µM (active).

Usually IC50 stands for the point on the concentration scale where inhibition reaches its midpoint. The AC50 is the midpoint of the concentration-response curve, whichever way the signal moves. For orientation: EC50 means the concentration giving half of the maximal effect. Usually CC50 stands for the concentration giving 50% cytotoxicity.
